Assay results: PMC4459787 (Science (New York, N.Y.), 2014)
Ends that are not written are not given here.

Assays:
[1] = biological target: mCherry:hnRNPA2 hydrogel droplets (low complexity domain of hnRNPA2) (Homo sapiens, UniProt P22626); test: Binding to mCherry:hnRNPA2 hydrogel droplets; settings: GFP signal at the periphery of mCherry:hnRNPA2 hydrogel droplets; overnight incubation at 4°C
[2] = tested on: pre-mRNA splicing (RAN GTPase, PTX3, NACA, GADD45A); assay type: cell-based; settings: human astrocytes
EAAT2 transcript = test: RT-PCR of EAAT2 transcript splicing in human astrocytes; assay type: cell-based; settings: for aberrant EAAT2 splicing: human astrocytes exposed to toxin until clear evidence of toxicity, PCR, fig. S6B
U2OS cells [3] = test: Cell entry and nucleolar localisation by HA immunostaining in U2OS cells; assay type: cell-based; settings: 10 μM, 30 min, fixed, HA antibody staining
human astrocytes = test: Nucleolar localisation by HA immunostaining in human astrocytes; assay type: cell-based; settings: U2OS cancer cells and human astrocytes, HA antibody and Fibrillarin staining
[4] = assay type: in vitro ADME; settings: cells or culture medium
U2OS cells [5] = assay type: cell-based
[6] = tested on: ribosomal RNA (45S precursor, 18S, 5.8S, 28S); test: qPCR of rRNA synthesis and processing in peptide-treated human astrocytes; assay type: cell-based; settings: 12 hours

Chain of mCherry:hnRNPA2 hydrogel droplets (low complexity domain of hnRNPA2) (P22626 193-353 limits assumed, one chain of several): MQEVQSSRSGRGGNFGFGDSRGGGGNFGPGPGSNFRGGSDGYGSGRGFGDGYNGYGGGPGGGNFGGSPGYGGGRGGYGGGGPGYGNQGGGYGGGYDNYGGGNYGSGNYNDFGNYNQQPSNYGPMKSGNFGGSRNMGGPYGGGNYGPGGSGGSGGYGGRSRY

Molecule: green fluorescent protein [GFP]
- binding to hnRNPA2 hydrogel droplets [1]: did not bind

Molecule: PRPRPRPRPRPRPRPRPRPRPRPRPRPRPRPRPRPRPRPRYPYDVPDYA [PR20]
- splicing of GADD45 mRNA ([2]; 6 hours, RT-PCR): include the full intronic sequences on both sides of exon 2
- splicing of NACA mRNA ([2]; 6 hours, RT-PCR): contain a different 5′ UTR
- splicing of PTX3 mRNA ([2]; 6 hours, RT-PCR): exon 2-skipping
- splicing of RAN GTPase mRNA ([2]; 6 hours, RT-PCR): exon 2-skipping
- expression of the ribosomal protein gene family ([2]; RNA-seq, P < 2.2e-16, Kolmogorov–Smirnov test): significantly up-regulated
- aberrant EAAT2 splicing (exon 9-skipped form and intron 7 retention) (EAAT2 transcript; human astrocytes, 10 or 15 μM, 36 hours, RT-PCR): appeared in a concentration-dependent manner
- cell entry and localisation (U2OS cells [3]): entered cells, migrated to the nucleus and bound to nucleoli
- nucleolar association (human astrocytes): associated prominently with nucleoli
- half-life [4]: 72 h
- time to half-maximal impact on cell viability (U2OS cells [5]; 10 μM peptide, fig. S4E): roughly 36 hours
- time to 50% cell death (U2OS cells [5]; 30 μM dose of the peptide, fig. S4F): 6 h
- cell morphology (U2OS cells [5]; U2OS cells, 10 μM, within 24 hours): spindle-like phenotype
- cell morphology and viability (U2OS cells [5]; U2OS cells, 30 μM, 24 hours): almost all cells were detached from the culture substrate and dead
- attenuation of rRNA precursor, 3′ junction of 5.8S rRNA ([6]; 10 μM, qPCR): 40%
- attenuation of rRNA precursor, third probe (5′ end of 5.8S rRNA) ([6]; 10 μM, qPCR): roughly 20%
- elevation of rRNA precursor, 5′ transcribed spacer primers ([6]; 10 μM, qPCR): 20%
- immature rRNA, first junctional probe (5′ end of 18S rRNA) ([6]; 10 μM, qPCR): elevation in immature rRNA
- rRNA precursor, 5′ junction of 28S rRNA ([6]; 10 μM, qPCR): normal precursor levels
- rRNA precursor, second junctional probe (3′ end of 18S rRNA) ([6]; 10 μM, qPCR): normal levels of rRNA precursor
- 28S rRNA level ([6]; 30 μM, qPCR): Slight reductions
- drop of rRNA precursor, 3′ terminus of 5.8S rRNA ([6]; 30 μM, qPCR): 70%
- reduction of the level of 5.8S rRNA ([6]; 30 μM, qPCR relative to vehicle): 70%

Molecule: CC(C)[C@H](NC(=O)[C@H](CC(=O)O)NC(=O)[C@H](Cc1ccc(O)cc1)NC(=O)[C@@H]1CCCN1C(=O)[C@H](Cc1ccc(O)cc1)NC(=O)[C@H](CCCNC(=N)N)NC(=O)CNC(=O)[C@H](CCCNC(=N)N)NC(=O)CNC(=O)[C@H](CCCNC(=N)N)NC(=O)CNC(=O)[C@H](CCCNC(=N)N)NC(=O)CNC(=O)[C@H](CCCNC(=N)N)NC(=O)CNC(=O)[C@H](CCCNC(=N)N)NC(=O)CNC(=O)[C@H](CCCNC(=N)N)NC(=O)CNC(=O)[C@H](CCCNC(=N)N)NC(=O)CNC(=O)[C@H](CCCNC(=N)N)NC(=O)CNC(=O)[C@H](CCCNC(=N)N)NC(=O)CNC(=O)[C@H](CCCNC(=N)N)NC(=O)CNC(=O)[C@H](CCCNC(=N)N)NC(=O)CNC(=O)[C@H](CCCNC(=N)N)NC(=O)CNC(=O)[C@H](CCCNC(=N)N)NC(=O)CNC(=O)[C@H](CCCNC(=N)N)NC(=O)CNC(=O)[C@H](CCCNC(=N)N)NC(=O)CNC(=O)[C@H](CCCNC(=N)N)NC(=O)CNC(=O)[C@H](CCCNC(=N)N)NC(=O)CNC(=O)[C@H](CCCNC(=N)N)NC(=O)CNC(=O)[C@H](CCCNC(=N)N)NC(=O)CN)C(=O)N1CCC[C@H]1C(=O)N[C@@H](CC(=O)O)C(=O)N[C@@H](Cc1ccc(O)cc1)C(=O)N[C@@H](C)C(=O)O [GR20]
- cell entry and localisation (U2OS cells [3]): entered cells, migrated to the nucleus and bound to nucleoli
- nucleolar association (human astrocytes): associated prominently with nucleoli

Molecule: CC(=O)O[C@H]1C(=O)[C@@]2(C)[C@H]([C@H](OC(=O)c3ccccc3)[C@]3(O)C[C@H](OC(=O)[C@H](O)[C@@H](NC(=O)c4ccccc4)c4ccccc4)C(C)=C1C3(C)C)[C@]1(OC(C)=O)CO[C@@H]1C[C@@H]2O [taxol]
- aberrant EAAT2 splicing (EAAT2 transcript): None of the four toxins gave evidence of aberrant splicing

Molecule: CN[C@@H]1C[C@H]2O[C@@](C)([C@@H]1OC)n1c3ccccc3c3c4c(c5c6ccccc6n2c5c31)C(=O)NC4 [staurosporin]
- aberrant EAAT2 splicing (EAAT2 transcript): None of the four toxins gave evidence of aberrant splicing

Molecule: C=C1[C@@H](C)[C@H]2[C@H](Cc3ccccc3)NC(=O)[C@]23[C@H](OC(C)=O)/C=C/[C@@](C)(O)C(=O)[C@@H](C)C/C=C/[C@H]3[C@@H]1O [cytochalasin D]
- aberrant EAAT2 splicing (EAAT2 transcript): None of the four toxins gave evidence of aberrant splicing

Molecule: COc1cccc2c1C(=O)c1c(O)c3c(c(O)c1C2=O)C[C@@](O)(C(=O)CO)C[C@@H]3O[C@H]1C[C@H](N)[C@H](O)[C@H](C)O1 [doxorubicin]
- aberrant EAAT2 splicing (EAAT2 transcript): None of the four toxins gave evidence of aberrant splicing
